The values below come from patent US11298363B2, “Triazolobenzazepines as vasopressin V1a receptor antagonists” (RICHTER GEDEON NYRT., priority 2017, dated 2022).

Marks after values point to notes of the source that are not given here.

Experiment [1] concerns the target T1, human vasopressin V1a receptor (Homo sapiens, UniProt P37288). Nature of the experiment: Human vasopressin V1a receptor binding assay. The conditions noted are these: 1321N1 cell membranes, [3H]vasopressin; read-out: Ki (nM) on hV1a cell line. In short, it runs like this:
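Ki values come from IC50 via Cheng-Prusoff (KD from prior Scatchard), averaged over at least two independent runs. Human V1a membranes were incubated with radioligand 60 minutes at 27° C., bound ligand collected by filtration; (Arg^8)-vasopressin at 1.2×10^−6 M defined non-specific binding.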

Experiment [2] concerns the target T1, human vasopressin V1a receptor. The experiment in a line: Functional assay on human vasopressin V1a receptor expressing cell line (intracellular Ca2+ fluorescence). The experiment is classed as cell-based. The conditions noted are these: 1321N1 cells, (Arg8)-vasopressin at EC80; read-out: IC50 (nM) on hV1a cell line.
Experiment [3] addresses human vasopressin V2 receptor (Homo sapiens, UniProt P30518). The experiment in a line: Human vasopressin V2 receptor binding assay on 1321N1 cell line. Conditions: for inhibition at 1 µM: read-out: inhibition % at 1 μM on hV2 1321N1 cell line; for Ki: 1321N1 cell line, read-out: Ki on hV2 1321N1 cell line. The method, then: Human Vasopressin V2 Receptor Binding Assay Cells and Radioligand
(§1) To determine the final affinity value, the results of at least two independent experiments were taken into account.
Non-specific binding values were determined in the presence of an unlabeled 1.2×10^−6 M (Arg^8)-vasopressin. Samples were incubated in a total volume of 0.55 ml for 90 minutes at 27° C. Membrane-bound and free ligands were separated by filtration through a 0.5% polyethyleneimine-impregnated UniFilter® GF/B™. After drying the filter plates, 40 μl Microscint-20 (Packard) scintillation cocktail was added to the samples. Finally, radioactivity was measured using MicroBeta^2 Microplate Counter (Perkin Elmer).
The radioligand displacement ability of a substance is determined in at least two independent experiments. Specific radioligand binding can be defined as the difference between total and non-specific binding in the presence of a saturation amount of the unlabeled ligand or different concentrations of the substance to be tested. The results are given as a percentage of inhibition of the specific binding achieved in the presence of the substance to be tested.
During fitting, the asymptotes are not fixed. The Ki values (inhibition constant) are given with Cheng-Prusoff equation Ki=IC50/[1+(L/KD)] wherein [L] is the radioligand concentration used in the experiment and [KD] is the affinity of the radioactively labelled ligand for the given receptor. The KD is determined beforehand using the Scatchard curve.

In experiment [4] the target is mouse vasopressin V1a receptor (Mus musculus, UniProt Q62463). Nature of the experiment: Mouse vasopressin V1a receptor binding assay. The conditions noted are these: 1321N1 cell membranes; read-out: Ki (nM) on mV1a cell line.
mouse vasopressin V1a receptor, sequence (Q62463 whole entry): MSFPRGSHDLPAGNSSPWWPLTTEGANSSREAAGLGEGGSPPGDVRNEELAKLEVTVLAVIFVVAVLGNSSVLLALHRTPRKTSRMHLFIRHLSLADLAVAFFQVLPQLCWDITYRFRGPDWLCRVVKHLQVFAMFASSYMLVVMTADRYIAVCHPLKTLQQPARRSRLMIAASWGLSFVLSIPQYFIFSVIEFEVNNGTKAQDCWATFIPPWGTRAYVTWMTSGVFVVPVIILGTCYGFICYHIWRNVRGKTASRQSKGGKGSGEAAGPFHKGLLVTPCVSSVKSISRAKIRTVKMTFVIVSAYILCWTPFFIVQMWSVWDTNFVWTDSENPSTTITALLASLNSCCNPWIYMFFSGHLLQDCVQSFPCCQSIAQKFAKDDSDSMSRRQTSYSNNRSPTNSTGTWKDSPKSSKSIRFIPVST
Description: Mouse Vasopressin V1a Receptor Binding Assay Cells and Radioligand
The immortalized 1321N1 cell line (B9/1321N1 clone) constitutively and stably expressing Mouse vasopressin V1a receptor vasopressin (8-L-Arginine), [Phenylalanyl-3,4,5-^3H(N)] labelled compound (Perkin Elmer Life and Analytical Sciences) as radioligand were used to determine the affinity of the prepared compounds.
Membrane-preparation: Membrane preparation of immortalized 1321N1 cells expressing the propagated mouse Vasopressin V1a receptor was made according to Jarvis's method (Jarvis et al., J Pharmacol Exp Ther […], 310:407-16). Cells were suspended in preparative buffer (50 mM Tris, 1 mM EDTA, 0.1 mM PMSF) and homogenized with glass homogenizing potter. To separate the raw membrane fraction two consecutive centrifugation procedures (40,000 g for 25 minutes at 4° C.) were executed, then the membrane was taken into the preparatory buffer during a final washing step, it was divided into aliquots which were stored at −80° C. until the time of measurement.
The protein content of the prepared membrane was determined according to Lowry's method using standard dilution line of bovine serum albumin (BSA) (Lowry et al., J Biol Chem 1951, 193:265-75).
as §1
Non-specific binding values were determined in the presence of an unlabeled 1.2×10^−6 M (Arg^8)-vasopressin. Samples were incubated in a total volume of 0.33 ml for 60 minutes at 27° C. Membrane-bound and free ligands were separated by filtration through a 0.5% polyethyleneimine-impregnated UniFilter® GF/B™ After drying the filter plates, 40 μl Microscint-20 (Packard) scintillation cocktail was added to the samples. Finally, radioactivity was measured using MicroBeta^2 Microplate Counter (Perkin Elmer).
The radioligand clamping ability of a substance is determined in at least two independent experiments. Specific radioligand binding can be defined as the difference between total and non-specific binding in the presence of a saturation amount of the unlabeled ligand or different concentrations of the substance to be tested. The results are given as a percentage of inhibition of the specific binding achieved in the presence of the substance to be tested.
The IC50 data (i.e. the concentration of the unknown substance which displaces 50% of specific bound radioligand) is calculated from the concentration-displacement curve using the sigmoid fitting mathematical method y=(A1−A2)/(1+(x/x0)p)+A2 with Origin 7.5. software (OriginLab Corporation, Northampton, USA). During fitting, the asymptotes are not fixed. The Ki values (inhibition constant) are given with Cheng-Prusoff equation Ki=IC50/[1+(L/KD)] wherein [L] is the radioligand concentration used in the experiment and [KD] is the affinity of the radioactively labelled ligand for the given receptor. The KD is determined beforehand using the Scatchard curve.

Another experiment concerns the target mouse V1a receptor (Mus musculus, UniProt Q62463). The experiment in a line: Functional V1a in vivo test: inhibition of oxytocin-induced scratching behaviour. The conditions noted are these: mice. The method, then:
Functional V1a In Vivo Test
Male mice (NMRI, ToxiCoop) weighing 18-40 g were used. Animals were kept at least 5 days after delivery, during housing and measurements they were fed and drink ad libitum. The experiments were permitted by the Local Animal Protection Committee and carried out in accordance with the European Animal Protection Directives (EU Directive 2010/63/EU).
Animal behaviour was measured by an automated behavioral analysis system (LABORAS™). The sensors located below platforms detect the mechanical vibration generated by the movement of animal, and transform into an electrical signal (Quinn et al., J Neurosci Methods 2003, 130:83-92). After analyzing signals, the system analyzes the time spent with the following behavioral parameters: locomotion, immobility, climbing, grooming. The grooming algorithm by definition is able to measure the scratching behavioral response. During the experiment, mice were pretreated with the test substance or vehicle, and after the pretreatment period scratching-inducing compound (s.c. 0.3 mg/kg oxytocin) was administered, and then the animals were individually placed into measuring cages. […] To reduce the exploratory activity, the animals were measured after a 1-hour habituation to the cage. The behavioural parameters were compared to the parallel measured parameters of the control animals.
The behavioural inhibitory effect of the substances was calculated with average values of parallel measured vehicle treated groups and presented as the percentage of inhibition: 0% was expressed as average value of scratching behaviour of vehicle pretreated animals (and phys. saline s.c. pretreated with vehicle), while 100% was expressed as average value of scratching of vehicle pretreated animals that received oxytocin subcutaneously. For statistical analysis one-way analysis of variance (ANOVA) with Tukey post hoc test were used.

Where [5] appears, read: after i.p. treatment (table title: 10 mg/kg).

T1 sequence (P37288 whole entry): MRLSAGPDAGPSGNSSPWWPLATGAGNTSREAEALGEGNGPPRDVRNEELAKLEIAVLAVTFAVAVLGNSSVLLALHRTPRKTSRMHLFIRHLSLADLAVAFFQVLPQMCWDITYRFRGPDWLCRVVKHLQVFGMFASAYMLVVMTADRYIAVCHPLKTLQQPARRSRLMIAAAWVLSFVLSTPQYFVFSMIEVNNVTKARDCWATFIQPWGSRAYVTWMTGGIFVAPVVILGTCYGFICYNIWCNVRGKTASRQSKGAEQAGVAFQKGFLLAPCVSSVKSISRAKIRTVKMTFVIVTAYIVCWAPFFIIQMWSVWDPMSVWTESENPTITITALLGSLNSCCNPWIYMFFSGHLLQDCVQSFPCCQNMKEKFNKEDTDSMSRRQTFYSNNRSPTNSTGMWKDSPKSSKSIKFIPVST
mouse V1a receptor, sequence (Q62463 whole entry): as the sequence (Q62463 whole entry) above
human vasopressin V2 receptor, sequence (P30518 whole entry): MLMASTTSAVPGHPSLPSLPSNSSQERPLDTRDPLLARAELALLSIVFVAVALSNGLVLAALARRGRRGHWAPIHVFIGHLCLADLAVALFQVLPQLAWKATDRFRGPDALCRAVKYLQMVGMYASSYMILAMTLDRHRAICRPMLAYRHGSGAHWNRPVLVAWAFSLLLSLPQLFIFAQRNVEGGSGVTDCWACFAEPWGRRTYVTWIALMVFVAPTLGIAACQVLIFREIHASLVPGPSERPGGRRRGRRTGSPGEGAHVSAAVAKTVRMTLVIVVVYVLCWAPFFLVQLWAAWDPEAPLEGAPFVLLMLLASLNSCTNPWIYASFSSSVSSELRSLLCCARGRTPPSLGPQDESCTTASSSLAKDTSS

For the molecule `CNC1Cc2cc(Cl)ccc2-n2c(nnc2[C@H]2CC[C@H](Oc3ccccn3)CC2)C1` (stereo partly drawn) [Example 21, 8-chloro-N-methyl-1-[trans-4-(pyridin-2-yloxy)cyclohexyl]-5,6-dihydro-4H-[1,2,4]triazolo[4,3a][1]benzazepine-5-amine], the Ki – broadly, a dissociation constant, usually derived from enzyme kinetics or from competition with a known ligand – in experiment [1] amounted to 0.7 nM. The IC50 (as a rule, the concentration needed to halve the response being measured) in experiment [2] was 4 nM. In experiment [3], the inhibition (as a rule, the share of the control response that was lost under treatment) at 1 µM worked out at 35%.
As for `CC(C)NC1Cc2cc(Cl)ccc2-n2c(nnc2[C@H]2CC[C@H](Oc3ccccn3)CC2)C1` (stereo partly drawn) [Example 24, 8-chloro-N-(propan-2-yl)-1-[trans-4-(pyridin-2-yloxy)cyclohexyl]-5,6-dihydro-4H-[1,2,4]triazolo[4,3-a][1]benzazepine-5-amine], the values for the inhibition constant (Ki) in experiment [1] and in experiment [4] were 1 nM and 25 nM, respectively. Also, the IC50 in experiment [2] amounted to 7 nM. For the same molecule, the “inhibition (%) of oxytocin-induced scratching behaviour response” value (from here on “inhibition (%)”) against mouse V1a receptor (setting [5]) was 94* %.
As for `CN(C)S(=O)(=O)NC1Cc2cc(Cl)ccc2-n2c(nnc2[C@H]2CC[C@H](Oc3ccccn3)CC2)C1` (stereo partly drawn) [Example 20, N′-{8-chloro-1-[trans-4-(pyridin-2-yloxy)cyclohexyl]-5,6-dihydro-4H-[1,2,4]triazolo[4,3-a][1]benzazepin-5-yl}-N,N-dimethylsulfamide], the values for the inhibition constant (Ki) in experiment [1] and in experiment [3] were 0.7 nM and 365 nM, respectively. Further, the IC50 in experiment [2] turned out to be 1 nM.
On to `Clc1ccc2c(c1)CC1(Cc3nnc([C@H]4CC[C@H](Oc5ccccn5)CC4)n3-2)OCCO1` [Example 53, 8′-chloro-1′-[trans-4-(pyridin-2-yloxy)cyclohexyl]-4′H,6′H-spiro[1,3-dioxolane-2,5′-[1,2,4]triazolo[4,3-a][1]benzazepine]], for which, in experiment [4], the Ki came to 1.1 nM. For the same molecule, the “inhibition (%)” value at mouse V1a receptor (10 mg/kg p.o. pretreatment) was 118%.
Consider `CN(C1Cc2cc(Cl)ccc2-n2c(nnc2[C@H]2CC[C@H](Oc3ccccn3)CC2)C1)S(C)(=O)=O` (stereo partly drawn) [Example 19, N-{8-chloro-1-[trans-4-pyridin-2-loxcyclohexyl]-5,6-dihydro-4H-[1,2,4]triazolo[4,3-a][1]benzazepin-5-yl}-N-methylmethanesulfonamide], for which the figures for the Ki in experiment [1] and in experiment [3] were 0.4 nM and 610 nM, respectively. The IC50 in experiment [2] turned out to be 1.8 nM.
`CC(C)(C)OC(=O)NC1Cc2cc(Cl)ccc2-n2c(nnc2C2CCN(c3ccccn3)CC2)C1` (stereo not shown) [Example 1, Tert-butyl [8-chloro-1-[1-(pyridin-2-yl)piperidin-4-yl]-5,6-dihydro-4H-[1,2,4]triazolo[4,3-a][1]benzazepin-5-yl]carbamate]: in experiment [1], the Ki turned out to be 6 nM. The IC50 in experiment [2] came to 95 nM. The inhibition at 1 µM in experiment [3] was determined as 4%.
Take `CC(C)N[C@H]1Cc2cc(Cl)ccc2-n2c(nnc2[C@H]2CC[C@H](Oc3ccccn3)CC2)C1` [Example 25]: the results for the inhibitory constant (Ki) in experiment [1] and in experiment [4] were 2.3 nM and 353 nM, respectively. For the same molecule, in experiment [2], the concentration for half-maximal inhibition (IC50) was found to be 23 nM. For the same molecule, the “inhibition (%)” value at mouse V1a receptor (setting [5]) is 42* %.
On to `FC(F)(F)c1ccc2c(c1)CC1(Cc3nnc([C@H]4CC[C@H](Oc5ccccn5)CC4)n3-2)OCCO1` [Example 47], for which the inhibition constant (Ki) in experiment [1] amounted to 0.8 nM; in experiment [3] it was 366 nM. In addition, in experiment [2], the IC50 was determined as 2.3 nM.
With `NC1Cc2cc(Cl)ccc2-n2c(nnc2[C@H]2CC[C@H](Oc3ccccn3)CC2)C1` (stereo partly drawn) [Example 6, 8-chloro-1-[trans-4-(pyridin-2-yloxy)cyclohexyl]-5,6-dihydro-4H-[1,2,4]triazolo[4,3-a][1]benzazepine-5-amine], in experiment [1], the Ki is 2 nM. Moreover, the IC50 in experiment [2] turned out to be 9 nM. Further, the inhibition at 1 µM in experiment [3] was 3%.
For the molecule `CS(=O)(=O)NC1Cc2cc(Cl)ccc2-n2c(nnc2[C@H]2CC[C@H](Oc3ccccn3)CC2)C1` (stereo partly drawn) [Example 18, N-{8-chloro-1-[trans-4-(pyridin-2-yloxy)cyclohexyl]-5,6-dihydro-4H-[1,2,4]triazolo[4,3-a][1]benzazepin-5-yl}methanesulfonamide], the Ki was 0.5 nM in experiment [1] and 255 nM in experiment [3]. Further, in experiment [2], the IC50 was found to be 1.6 nM.
As for `CCN[C@@H]1Cc2cc(Cl)ccc2-n2c(nnc2[C@H]2CC[C@H](Oc3ccccn3)CC2)C1` [Example 99, (5R)-8-chloro-N-ethyl-1-[trans-4-(pyridin-2-yloxy)cyclohexyl]-5,6-dihydro-4H-[1,2,4]triazolo[4,3-a][1]benzazepin-5-amine], in experiment [1], the inhibition constant (Ki) amounted to 0.3 nM. For the same molecule, the IC50 in experiment [2] amounted to 2.5 nM. The “inhibition (%)” value on mouse V1a receptor (10 mg/kg p.o. pretreatment) was 60%.
With `O=C(N[C@@H]1Cc2cc(Cl)ccc2-n2c(nnc2[C@H]2CC[C@H](Oc3ccccn3)CC2)C1)C1CC1` [Example 126, N-{(5R)-8-chloro-1-[trans-4-(pyridin-2-yloxy)cyclohexyl]-5,6-dihydro-4H-[1,2,4]triazolo[4,3-a][1]benzazepin-5-yl}cyclopropanecarboxamide], in experiment [1], the Ki stood at 0.6 nM. For the same molecule, in experiment [2], the half-maximal inhibitory concentration (IC50) came out at 1.8 nM. Further, the “inhibition (%)” value on mouse V1a receptor (10 mg/kg p.o. pretreatment) was 43%.
In the case of `FC(F)(F)[C@H]1CC[C@H](c2nnc3n2-c2ccc(Cl)cc2CC2(C3)OCCO2)CC1` [Example 61, 8′-chloro-1′-[trans-4-(trifluoromethyl)cyclohexyl]-4′H,6′H-spiro[1,3-dioxolane-2,5′-[1,2,4]triazolo[4,3-a][1]benzazepine]], the inhibition constant (Ki) in experiment [1] was found to be 0.4 nM. Moreover, the IC50 in experiment [2] came to 2.5 nM. Besides, the “inhibition (%)” value on mouse V1a receptor (10 mg/kg p.o. pretreatment) is on record as 41%.
As for `CN(C)[C@@H]1Cc2cc(Cl)ccc2-n2c(nnc2[C@H]2CC[C@H](Oc3ccccn3)CC2)C1` [Example 101, (5R)-8-chloro-N,N-dimethyl-1-[trans-4-(pyridin-2-yloxy)cyclohexyl]-5,6-dihydro-4H-[1,2,4]triazolo[4,3-a][1]benzazepin-5-amine], in experiment [1], the Ki is 0.2 nM. Also, in experiment [2], the IC50 amounted to 1.3 nM. Moreover, the “inhibition (%)” value at mouse V1a receptor (10 mg/kg p.o. pretreatment) is recorded as 105%.
